Experimental data reported in the supplement of paper PMC10307832.

Assays:
Experiment in all cases: relative viability (nuclei count vs DMSO), 5 days (fraction); higher = more cells survive
Obatoclax + Foretinib = compound: COC1=CC(c2cc3ccccc3[nH]2)=N/C1=C\c1[nH]c(C)cc1C [Obatoclax] + COc1cc2c(Oc3ccc(NC(=O)C4(C(=O)Nc5ccc(F)cc5)CC4)cc3F)ccnc2cc1OCCCN1CCOCC1 [Foretinib] (partner 0.25 µM)
Outline: (§1)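 Nuclei were stained with Hoechst during a one-step fixation (final 0.05% Triton X-100, 1% formaldehyde, 1 ug/ml Hoechst) carried out 5 days after dosing, then counted on 4× images. The cells, lung cancer lines in 1536-well plates, had been dosed by pin tool the day after seeding with one drug alone or a fixed anchor-drug dose plus five library-drug doses (not always all listed) in √10 steps. Relative viability is the nuclei count in treated wells divided by that in vehicle wells, and each value is the median of duplicate plates.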

Bortezomib + Tozasertib = compound: CC(C)C[C@H](NC(=O)[C@H](Cc1ccccc1)NC(=O)c1cnccn1)B(O)O [Bortezomib] + Cc1cc(Nc2cc(N3CCN(C)CC3)nc(Sc3ccc(NC(=O)C4CC4)cc3)n2)n[nH]1 [Tozasertib] (partner 0.1 µM)
Outline: as §1

Obatoclax + Alpelisib = compound: COC1=CC(c2cc3ccccc3[nH]2)=N/C1=C\c1[nH]c(C)cc1C [Obatoclax] + Cc1nc(NC(=O)N2CCC[C@H]2C(N)=O)sc1-c1ccnc(C(C)(C)C(F)(F)F)c1 [Alpelisib] (partner 2 µM)
Outline: as §1

[1] = compound: CC1=CC(=NN1)NC2=CC(=NC(=N2)/C=C/C3=CC=CC=C3)N4CCN(CC4)C + CC(=O)Nc1cccc(-n2c(=O)n(C3CC3)c(=O)c3c(Nc4ccc(I)cc4F)n(C)c(=O)c(C)c32)c1 [Trametinib] (partner 0.02 µM)
Outline: as §1

Cell Line	relative viability (Obatoclax + Foretinib; first compound 0.01 µM)	relative viability (Obatoclax + Foretinib; first compound 0.03162 µM)	relative viability (Obatoclax + Foretinib; first compound 0.1 µM)	relative viability (Obatoclax + Foretinib; first compound 0.3162 µM)	relative viability (Obatoclax + Foretinib; first compound 1 µM)	relative viability (Bortezomib + Tozasertib; first compound 0.0002 µM)	relative viability (Bortezomib + Tozasertib; first compound 0.000632 µM)	relative viability (Bortezomib + Tozasertib; first compound 0.002 µM)	relative viability (Bortezomib + Tozasertib; first compound 0.006325 µM)	relative viability (Bortezomib + Tozasertib; first compound 0.02 µM)	relative viability (Obatoclax + Alpelisib; first compound 0.01 µM)	relative viability (Obatoclax + Alpelisib; first compound 0.03162 µM)	relative viability (Obatoclax + Alpelisib; first compound 0.1 µM)	relative viability (Obatoclax + Alpelisib; first compound 0.3162 µM)	relative viability (Obatoclax + Alpelisib; first compound 1 µM)	relative viability ([1]; first compound 0.08 µM)	relative viability ([1]; first compound 0.253 µM)	relative viability ([1]; first compound 0.8 µM)	relative viability ([1]; first compound 2.53 µM)	relative viability ([1]; first compound 8 µM)
COR-L23	0.878	1.05	0.927	0.51	0.323	0.198	0.198	0.153	0.049	0.0491	0.765	0.808	0.675	0.209	0.182	0.549	0.244	0.574	0.102	0.0853
COR-L 105	1.01	1.19	1.05	0.534	0.454	0.357	0.345	0.216	0.254	0.19	1.02	1.21	0.944	0.904	0.336	0.427	0.453	0.416	0.276	0.27
EKVX	0.911	0.76	0.427	0.752	1.09	0.419	0.437	0.342	0.2	0.105	0.941	0.9	1.02	0.853	0.891	0.387	0.368	0.394	0.352	0.137
EMC-BAC-2	0.987	1.03	1.08	0.864	0.788	0.249	0.274	0.403	0.171	0.174	0.658	0.797	0.744	0.738	0.696	0.899	0.698	0.938	0.691	0.283
EPLC-272H	0.735	0.577	0.769	0.619	0.499	0.297	0.258	0.221	0.1	0.101	1.08	0.962	0.808	0.906	0.941	0.251	0.261	0.292	0.213	0.126
H3255	0.826	0.802	0.891	1.05	0.996	0.783	0.589	0.564	0.184	0.243	0.611	0.725	0.732	0.631	0.55	0.636	0.45	0.665	0.608	0.271
HARA	0.966	0.93	0.91	0.935	1	0.0998	0.0941	0.0961	0.0503	0.061	0.942	0.529	0.916	0.802	0.78	0.824	0.448	0.65	0.148	0.0692
HCC-15	1.04	1.05	0.846	0.912	0.857	0.372	0.45	0.405	0.0716	0.0808	0.844	0.777	0.827	0.856	0.609	0.371	0.378	0.396	0.278	0.0994
